Measurements reported in BindingDB's records for doi:10.1158/1535-7163.MCT-07-0187 (Burnham Institute For Medical Research, 2007).

Molecular target: T1, Fatty acid synthase [2202-2509] (Homo sapiens, UniProt P49327)
T1 construct: 2202-2509
Experiment: Fluorogenic Assay for Detection of FASTE Inhibition
Conditions: pH 7.5; 37 °C
Method: The reaction mixture consisted of FAS thioesterase domain (FASTE) in buffer, which was preincubated with test compounds for 30 min. The reaction was initiated by addition of substrate 4-MUH. […] The inhibition constants (Ki) were calculated using the equation of Cheng and Prusoff.

T1 sequence (P49327 2202-2509): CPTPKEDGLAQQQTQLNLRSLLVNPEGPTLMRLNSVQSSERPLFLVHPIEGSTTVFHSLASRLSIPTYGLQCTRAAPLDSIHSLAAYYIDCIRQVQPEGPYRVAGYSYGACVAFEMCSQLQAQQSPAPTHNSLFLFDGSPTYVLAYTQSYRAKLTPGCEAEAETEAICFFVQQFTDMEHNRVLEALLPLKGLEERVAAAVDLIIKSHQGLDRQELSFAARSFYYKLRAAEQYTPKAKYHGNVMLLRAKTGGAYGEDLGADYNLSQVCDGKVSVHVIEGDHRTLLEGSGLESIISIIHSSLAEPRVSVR

| Structure (SMILES) | Ki [nM] |
| --- | --- |
| Cc1ccccc1N1C(=O)NC(=O)C(=Cc2ccc(-c3ccc(F)cc3)o2)C1=O [(5E)-5-{[5-(4-fluorophenyl)furan-2-yl]methylidene}-1-(2-methylphenyl)-1,3-diazinane-2,4,6-trione] | 910 |
| Cc1cc(C)cc(N2C(=O)NC(=O)C(=Cc3ccc(-c4ccccc4)o3)C2=O)c1 [(5E)-1-(3,5-dimethylphenyl)-5-[(5-phenylfuran-2-yl)methylidene]-1,3-diazinane-2,4,6-trione] | 380 |
| O=C1NC(=O)N(c2cccc(Br)c2)C(=O)C1=Cc1ccc(-c2ccccc2[N+](=O)[O-])o1 [(5E)-1-(3-bromophenyl)-5-{[5-(2-nitrophenyl)furan-2-yl]methylidene}-1,3-diazinane-2,4,6-trione] | 880 |
| O=C1NC(=O)N(Cc2ccccc2)C(=O)/C1=C/c1ccc(-c2ccccc2Cl)o1 [(5E)-1-benzyl-5-{[5-(2-chlorophenyl)furan-2-yl]methylidene}-1,3-diazinane-2,4,6-trione] | 850 |
